The source of these data is patent US6036958A, “Tsetse thrombin inhibitor” (Yale University, priority 1999, dated 2000).

For experiment [1], the target named is thrombin (Homo sapiens, UniProt P00734). Briefly: Single stage chromogenic assay of thrombin inhibition (S-2238). Format: biochemical. Particulars: purified protein. As for the experimental part: Thrombin Assays. A single stage chromogenic assay of thrombin inhibition was used to monitor SGE activity. 100 μl of thrombin, diluted to a concentration of 1 nM in 10 mM HEPES, pH 7.5 containing 0.1% bovine serum albumin and 150 mM NaCl (HBSA), was incubated with 50 µl of SGE, column fractions (diluted 1:1000 in HBSA), or purified TTI for 15 min at 25° C. in a 96 well microtiter plate. Following the addition of […], the initial rate (mOD/min) of substrate hydrolysis over 5 min was measured at 405 nm using a Vmax kinetic microplate reader (Molecular Devices, Palo Alto, Calif.). Results were expressed as percent inhibition of thrombin activity using the following formula:
Percent inhibition=1--(inhibited rate/uninhibited rate)×100

For experiment [2], the system named is thrombin induced platelet aggregation. As to the kind of experiment: Platelet aggregation assay, thrombin induced. Format: cell-based. Particulars: washed human platelets; TTI 0, 0.001, 0.5, 1.0 nM; thrombin 0.2 NIH U/ml. As for the experimental part: (§1) Platelet Aggregation Assay. Blood from a healthy human volunteer was collected by venipuncture, anticoagulated with 1/10 volume of 0.08 M trisodium citrate, and centrifuged at 150 g for 10 min. The platelet rich plasma (PRP) was withdrawn and acidified to pH 6.4 using 0.15 M citric acid^15. The PRP was then centrifuged at 370 g for 20 min and the supernatant discarded. The platelet pellet was resuspended in Tyrodes solution (pH 7.4) with 3.13% wt/vol trisodium citrate and counted in a Coulter counter (Coulter Electronics, Hialeah, Fla.). The concentration of platelets was adjusted to 3×10^4 /μl prior to use.
To determine the effect of TTI on thrombin induced aggregation, 200 μl of washed platelets were warmed to 37° C. in a Born multi-channel aggregometer in the presence of increasing concentrations of purified TTI. Aggregation was then recorded following the addition of 20 μl of thrombin (Boehringer-Mannheim, Indianapolis, Ind.) at a final concentration of 0.2 NIH U/ml. The aggregometer was calibrated to 100% light transmission, ie 0% aggregation, using Tyrodes solution.

Experiment [3] has as its system ADP induced platelet aggregation. As to the kind of experiment: Platelet aggregation assay, ADP induced. Format: cell-based, human. Particulars: purified TTI. The method, then: as §1
Experiment [4] has as its system collagen induced platelet aggregation. As to the kind of experiment: Platelet aggregation assay, collagen induced. Format: cell-based, human. Conditions: purified TTI. As for the experimental part:
as §1

Experiment [5] concerns restenosis following angioplasty. Conditions: rabbits; cited from earlier work.

No end group written: not given here.

As for “TTI: low molecular weight polypeptide (about 3530 Da) purified from Glossina morsitans morsitans salivary glands; residues 19 to 50 of SEQ ID NO: 2 (GEPGAPIDYDEYGDSSEEVGGTPLHEIPGIRL)”, the “inhibitory activity against thrombin” value in experiment [1] is “potent, tight-binding inhibitor of thrombin”. The “inhibition of platelet aggregation in response to thrombin” value in experiment [2] is on record as “dose dependent inhibition of platelet aggregation”. The “effect on ADP induced aggregation” value in experiment [3] is “no effect”. For the same molecule, the “effect on collagen induced aggregation” value in experiment [4] is listed as “no effect”.

“tick anticoagulant peptide: from Ornithodoros moubata, potent and specific inhibitor of factor Xa (YNRLCIKPRDWIDECDSNEGGERAYFRNGKGGCDSFWICPEDHTGADYYSSYRDCFNACI; ends and bridges not checked; cysteine pairing not given here; UniProt P17726 1-60, looked up) [reference compound]”: in experiment [5], the “reducing restenosis following angioplasty, compared with heparin” value is reported as “superior to heparin”.

B1: recombinant antistasin: from the leech Haementaria officinalis, potent and specific inhibitor of factor Xa (protein, UniProt P15358 18-136, looked up)
Antistasin: QGPFGPGCEEAGCPEGSACNIITDRCTCSGVRCRMHCPHGFQRSRYGCEFCKCRLEPMKATCDISECPEGMMCSRLTNKCDCKIDINCRKTCPNGLKRDKLGCEYCECRPKRKLIPRLS
Regarding B1, the “reducing restenosis following angioplasty, compared with heparin” value in experiment [5] is “superior to heparin”.
